Data on two compounds can be found in patent publication US10479786B2, “Protein kinase inhibitors” (Princeton Drug Discovery Inc, priority 2016, dated 2019).

Common to all, as to test: Off-chip Mobility Shift Assay, kinase inhibition
Type in all cases: biochemical

The target of one assay is T1, FMS (Homo sapiens, UniProt P07333).
T1 construct: purchased Carna Biosciences, Inc
Conditions: recombinant FMS; for inhibition at 0.001 µM: at 1 nM; for inhibition at 0.01 µM: at 10 nM.

The target of another assay is T2, PDGFRβ (Homo sapiens, UniProt P09619).
T2 construct: purchased Carna Biosciences, Inc
T2 sequence (P09619 33-1106): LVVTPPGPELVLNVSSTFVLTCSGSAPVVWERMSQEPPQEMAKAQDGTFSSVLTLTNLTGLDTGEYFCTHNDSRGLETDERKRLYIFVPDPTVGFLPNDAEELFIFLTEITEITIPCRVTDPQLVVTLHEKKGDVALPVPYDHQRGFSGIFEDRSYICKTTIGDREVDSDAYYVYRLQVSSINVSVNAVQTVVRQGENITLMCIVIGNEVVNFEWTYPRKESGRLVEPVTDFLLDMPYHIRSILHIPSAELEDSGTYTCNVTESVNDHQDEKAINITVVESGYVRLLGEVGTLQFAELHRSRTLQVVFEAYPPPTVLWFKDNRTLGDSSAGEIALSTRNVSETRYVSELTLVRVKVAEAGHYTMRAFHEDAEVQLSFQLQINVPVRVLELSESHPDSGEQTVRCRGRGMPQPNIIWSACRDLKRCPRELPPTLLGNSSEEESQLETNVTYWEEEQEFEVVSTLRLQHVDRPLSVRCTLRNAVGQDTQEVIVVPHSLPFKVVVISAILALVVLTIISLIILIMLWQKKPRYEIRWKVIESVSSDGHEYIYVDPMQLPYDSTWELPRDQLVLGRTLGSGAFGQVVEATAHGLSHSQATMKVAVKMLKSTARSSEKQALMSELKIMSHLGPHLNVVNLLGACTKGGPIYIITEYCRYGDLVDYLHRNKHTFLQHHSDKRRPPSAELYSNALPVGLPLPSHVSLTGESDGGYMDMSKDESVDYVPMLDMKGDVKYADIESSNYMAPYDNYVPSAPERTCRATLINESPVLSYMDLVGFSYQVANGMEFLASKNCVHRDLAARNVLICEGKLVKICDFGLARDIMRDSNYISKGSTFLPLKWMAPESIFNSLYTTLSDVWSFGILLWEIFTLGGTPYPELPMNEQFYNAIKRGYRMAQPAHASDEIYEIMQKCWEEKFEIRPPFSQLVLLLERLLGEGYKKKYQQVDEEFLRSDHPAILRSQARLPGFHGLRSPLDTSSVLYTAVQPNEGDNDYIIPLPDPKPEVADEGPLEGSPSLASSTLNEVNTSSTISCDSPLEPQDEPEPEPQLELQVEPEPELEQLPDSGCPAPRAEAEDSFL
As to conditions: recombinant PDGFRβ; for inhibition at 0.001 µM: at 1 nM; for inhibition at 0.01 µM: at 10 nM, read-out: inhibition.

Another assay concerns the target T3, LYNa (Homo sapiens, UniProt P07948).
T3 construct: purchased Carna Biosciences, Inc
As to conditions: recombinant LYNa; for inhibition at 0.001 µM: at 1 nM; for inhibition at 0.01 µM: at 10 nM, read-out: inhibition.

The target in another assay is T4, EPHA1 (Homo sapiens, UniProt P21709).
T4 construct: purchased Carna Biosciences, Inc
T4 sequence (P21709 26-976): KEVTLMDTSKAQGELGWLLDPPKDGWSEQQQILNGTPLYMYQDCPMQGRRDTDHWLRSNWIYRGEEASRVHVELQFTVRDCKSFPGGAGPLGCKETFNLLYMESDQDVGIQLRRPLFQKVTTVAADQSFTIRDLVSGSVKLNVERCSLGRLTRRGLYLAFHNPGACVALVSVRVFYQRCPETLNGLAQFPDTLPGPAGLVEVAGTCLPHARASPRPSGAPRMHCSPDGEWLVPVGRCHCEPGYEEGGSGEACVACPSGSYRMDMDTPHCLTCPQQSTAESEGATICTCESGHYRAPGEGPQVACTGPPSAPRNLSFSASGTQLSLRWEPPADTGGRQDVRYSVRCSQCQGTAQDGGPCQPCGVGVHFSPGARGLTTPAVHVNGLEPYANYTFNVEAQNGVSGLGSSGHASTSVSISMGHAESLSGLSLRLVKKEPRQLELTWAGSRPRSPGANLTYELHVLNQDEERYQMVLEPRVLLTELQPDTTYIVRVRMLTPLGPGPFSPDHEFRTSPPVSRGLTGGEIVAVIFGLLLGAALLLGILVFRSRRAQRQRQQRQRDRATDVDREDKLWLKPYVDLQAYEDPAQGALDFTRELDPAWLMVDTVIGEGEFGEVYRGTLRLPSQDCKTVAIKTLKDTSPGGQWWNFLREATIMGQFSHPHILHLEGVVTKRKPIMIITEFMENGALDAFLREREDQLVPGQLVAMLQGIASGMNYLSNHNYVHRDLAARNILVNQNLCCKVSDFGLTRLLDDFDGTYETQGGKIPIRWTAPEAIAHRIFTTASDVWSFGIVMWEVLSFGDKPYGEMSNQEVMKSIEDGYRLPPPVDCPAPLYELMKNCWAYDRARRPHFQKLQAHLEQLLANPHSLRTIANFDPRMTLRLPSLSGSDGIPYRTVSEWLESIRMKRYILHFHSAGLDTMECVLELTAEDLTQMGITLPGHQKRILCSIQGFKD
Conditions: recombinant EPHA1; for inhibition at 0.001 µM: at 1 nM; for inhibition at 0.01 µM: at 10 nM.

Another assay deals with T5, PIK3CA/PIK3R1 (Homo sapiens, UniProt P42336).
T5 construct: purchased Carna Biosciences, Inc
T5 sequence (P42336 whole entry): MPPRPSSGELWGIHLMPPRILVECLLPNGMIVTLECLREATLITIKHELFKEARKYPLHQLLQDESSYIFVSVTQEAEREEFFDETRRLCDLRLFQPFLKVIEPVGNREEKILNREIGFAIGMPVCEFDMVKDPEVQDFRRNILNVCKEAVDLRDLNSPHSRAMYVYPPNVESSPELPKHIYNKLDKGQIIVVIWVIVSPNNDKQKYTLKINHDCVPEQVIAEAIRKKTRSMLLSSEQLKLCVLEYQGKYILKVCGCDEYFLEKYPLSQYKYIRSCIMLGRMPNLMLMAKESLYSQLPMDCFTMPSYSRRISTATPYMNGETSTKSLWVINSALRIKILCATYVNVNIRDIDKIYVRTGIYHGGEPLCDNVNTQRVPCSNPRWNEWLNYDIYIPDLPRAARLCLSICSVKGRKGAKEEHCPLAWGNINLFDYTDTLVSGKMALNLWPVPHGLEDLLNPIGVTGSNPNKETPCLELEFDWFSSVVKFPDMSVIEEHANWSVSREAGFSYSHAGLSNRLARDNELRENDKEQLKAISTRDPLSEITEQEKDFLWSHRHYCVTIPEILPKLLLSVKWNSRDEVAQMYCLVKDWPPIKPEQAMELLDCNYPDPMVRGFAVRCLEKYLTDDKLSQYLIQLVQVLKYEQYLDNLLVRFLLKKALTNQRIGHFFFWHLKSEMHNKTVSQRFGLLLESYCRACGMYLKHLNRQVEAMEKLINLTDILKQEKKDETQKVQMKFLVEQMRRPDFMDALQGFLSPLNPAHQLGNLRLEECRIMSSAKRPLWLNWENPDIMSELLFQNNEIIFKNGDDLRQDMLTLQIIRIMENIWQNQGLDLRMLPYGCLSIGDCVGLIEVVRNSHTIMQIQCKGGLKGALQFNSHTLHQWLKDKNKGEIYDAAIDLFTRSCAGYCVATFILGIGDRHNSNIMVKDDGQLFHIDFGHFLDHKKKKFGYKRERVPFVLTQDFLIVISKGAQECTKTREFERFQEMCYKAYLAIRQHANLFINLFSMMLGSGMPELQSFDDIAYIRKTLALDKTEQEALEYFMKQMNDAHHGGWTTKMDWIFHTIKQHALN
T5 sequence (P27986 whole entry partner): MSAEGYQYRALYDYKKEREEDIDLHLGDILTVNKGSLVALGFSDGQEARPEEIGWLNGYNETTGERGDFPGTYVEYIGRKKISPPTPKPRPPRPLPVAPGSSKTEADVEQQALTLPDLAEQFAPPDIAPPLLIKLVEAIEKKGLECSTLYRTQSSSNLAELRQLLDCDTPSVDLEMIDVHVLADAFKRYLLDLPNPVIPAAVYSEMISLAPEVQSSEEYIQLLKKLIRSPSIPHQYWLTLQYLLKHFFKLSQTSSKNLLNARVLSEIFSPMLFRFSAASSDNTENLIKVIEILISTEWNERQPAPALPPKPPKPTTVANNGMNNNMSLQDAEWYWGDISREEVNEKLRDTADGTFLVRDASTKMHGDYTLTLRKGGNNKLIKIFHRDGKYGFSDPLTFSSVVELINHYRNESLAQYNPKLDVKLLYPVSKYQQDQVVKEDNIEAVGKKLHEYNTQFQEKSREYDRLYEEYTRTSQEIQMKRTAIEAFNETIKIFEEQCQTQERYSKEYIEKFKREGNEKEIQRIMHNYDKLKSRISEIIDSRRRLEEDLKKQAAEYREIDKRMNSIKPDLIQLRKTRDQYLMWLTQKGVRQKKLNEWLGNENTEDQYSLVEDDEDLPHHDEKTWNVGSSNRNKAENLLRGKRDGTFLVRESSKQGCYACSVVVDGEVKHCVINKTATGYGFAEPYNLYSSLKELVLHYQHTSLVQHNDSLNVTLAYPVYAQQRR
As to conditions: recombinant PIK3CA/PIK3R1; for inhibition at 0.01 µM: at 10 nM.

The next assay has as its target T6, BMX (Homo sapiens, UniProt P51813).
T6 construct: purchased Carna Biosciences, Inc
T6 sequence (P51813 1-675): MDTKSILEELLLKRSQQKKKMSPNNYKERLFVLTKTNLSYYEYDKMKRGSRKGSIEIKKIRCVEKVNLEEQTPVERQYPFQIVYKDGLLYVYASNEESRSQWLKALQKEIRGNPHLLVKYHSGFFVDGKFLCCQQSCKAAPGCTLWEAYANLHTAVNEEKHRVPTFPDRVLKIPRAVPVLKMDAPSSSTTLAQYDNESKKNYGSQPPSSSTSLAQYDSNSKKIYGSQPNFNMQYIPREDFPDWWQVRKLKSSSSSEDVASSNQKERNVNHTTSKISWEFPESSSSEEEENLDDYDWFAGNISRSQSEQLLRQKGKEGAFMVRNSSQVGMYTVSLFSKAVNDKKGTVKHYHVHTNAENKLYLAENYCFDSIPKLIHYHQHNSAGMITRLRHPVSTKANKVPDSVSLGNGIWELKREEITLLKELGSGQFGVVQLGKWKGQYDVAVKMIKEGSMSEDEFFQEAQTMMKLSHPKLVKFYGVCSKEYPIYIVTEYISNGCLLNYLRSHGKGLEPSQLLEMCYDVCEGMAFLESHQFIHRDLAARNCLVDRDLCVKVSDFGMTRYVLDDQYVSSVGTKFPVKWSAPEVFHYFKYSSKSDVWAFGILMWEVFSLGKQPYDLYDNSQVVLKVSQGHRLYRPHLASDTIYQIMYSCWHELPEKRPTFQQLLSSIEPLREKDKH
Conditions: recombinant BMX; for inhibition at 0.001 µM: at 1 nM; for inhibition at 0.01 µM: at 10 nM.

The target in the next assay is T7, DDR2 (Homo sapiens, UniProt Q16832).
T7 construct: purchased Carna Biosciences, Inc
T7 sequence (Q16832 22-855): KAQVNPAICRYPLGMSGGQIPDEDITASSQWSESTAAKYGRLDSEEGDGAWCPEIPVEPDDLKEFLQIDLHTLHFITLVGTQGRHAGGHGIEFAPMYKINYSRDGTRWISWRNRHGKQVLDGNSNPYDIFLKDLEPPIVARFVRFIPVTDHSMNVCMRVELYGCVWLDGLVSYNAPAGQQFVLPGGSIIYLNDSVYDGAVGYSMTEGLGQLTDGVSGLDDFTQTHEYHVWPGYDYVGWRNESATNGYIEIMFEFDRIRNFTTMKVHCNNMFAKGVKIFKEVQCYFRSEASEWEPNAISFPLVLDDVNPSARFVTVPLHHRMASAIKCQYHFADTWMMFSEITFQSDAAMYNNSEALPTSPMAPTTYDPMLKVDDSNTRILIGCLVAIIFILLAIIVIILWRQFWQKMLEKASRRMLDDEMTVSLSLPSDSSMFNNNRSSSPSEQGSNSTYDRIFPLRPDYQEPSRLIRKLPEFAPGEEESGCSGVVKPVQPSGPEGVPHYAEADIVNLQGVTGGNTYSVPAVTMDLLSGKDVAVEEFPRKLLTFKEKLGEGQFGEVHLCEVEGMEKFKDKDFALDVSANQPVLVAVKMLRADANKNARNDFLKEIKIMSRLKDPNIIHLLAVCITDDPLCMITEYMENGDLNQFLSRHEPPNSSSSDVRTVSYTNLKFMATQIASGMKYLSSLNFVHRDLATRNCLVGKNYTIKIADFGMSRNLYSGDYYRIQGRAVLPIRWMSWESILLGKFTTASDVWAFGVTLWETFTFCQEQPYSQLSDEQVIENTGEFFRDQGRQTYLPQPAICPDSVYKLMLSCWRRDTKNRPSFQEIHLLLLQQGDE
As to conditions: recombinant DDR2; for inhibition at 0.01 µM: at 10 nM, read-out: inhibition.

Another assay has as its target T8, FRK (Homo sapiens, UniProt P42685).
T8 construct: purchased Carna Biosciences, Inc
Conditions: recombinant FRK; for inhibition at 0.001 µM: at 1 nM; for inhibition at 0.01 µM: at 10 nM.

In another assay the target is T9, ABL (Homo sapiens, UniProt P00519).
T9 construct: purchased Carna Biosciences, Inc
As to conditions: recombinant ABL; for inhibition at 0.001 µM: at 1 nM; for inhibition at 0.01 µM: at 10 nM.

T8 sequence (P42685 whole entry): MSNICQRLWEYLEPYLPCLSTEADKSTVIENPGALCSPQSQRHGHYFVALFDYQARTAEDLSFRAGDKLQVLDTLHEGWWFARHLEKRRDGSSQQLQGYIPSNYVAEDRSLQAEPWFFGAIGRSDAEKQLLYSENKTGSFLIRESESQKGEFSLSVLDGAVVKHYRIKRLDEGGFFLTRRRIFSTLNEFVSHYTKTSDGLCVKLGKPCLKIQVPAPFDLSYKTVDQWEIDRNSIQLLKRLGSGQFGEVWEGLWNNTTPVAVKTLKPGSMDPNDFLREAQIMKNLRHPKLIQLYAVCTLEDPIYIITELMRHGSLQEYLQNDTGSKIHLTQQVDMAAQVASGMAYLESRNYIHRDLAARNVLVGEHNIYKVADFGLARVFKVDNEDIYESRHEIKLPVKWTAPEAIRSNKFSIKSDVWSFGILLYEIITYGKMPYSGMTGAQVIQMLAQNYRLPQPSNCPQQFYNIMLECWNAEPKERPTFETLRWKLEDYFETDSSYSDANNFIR
T1 sequence (P07333 20-972): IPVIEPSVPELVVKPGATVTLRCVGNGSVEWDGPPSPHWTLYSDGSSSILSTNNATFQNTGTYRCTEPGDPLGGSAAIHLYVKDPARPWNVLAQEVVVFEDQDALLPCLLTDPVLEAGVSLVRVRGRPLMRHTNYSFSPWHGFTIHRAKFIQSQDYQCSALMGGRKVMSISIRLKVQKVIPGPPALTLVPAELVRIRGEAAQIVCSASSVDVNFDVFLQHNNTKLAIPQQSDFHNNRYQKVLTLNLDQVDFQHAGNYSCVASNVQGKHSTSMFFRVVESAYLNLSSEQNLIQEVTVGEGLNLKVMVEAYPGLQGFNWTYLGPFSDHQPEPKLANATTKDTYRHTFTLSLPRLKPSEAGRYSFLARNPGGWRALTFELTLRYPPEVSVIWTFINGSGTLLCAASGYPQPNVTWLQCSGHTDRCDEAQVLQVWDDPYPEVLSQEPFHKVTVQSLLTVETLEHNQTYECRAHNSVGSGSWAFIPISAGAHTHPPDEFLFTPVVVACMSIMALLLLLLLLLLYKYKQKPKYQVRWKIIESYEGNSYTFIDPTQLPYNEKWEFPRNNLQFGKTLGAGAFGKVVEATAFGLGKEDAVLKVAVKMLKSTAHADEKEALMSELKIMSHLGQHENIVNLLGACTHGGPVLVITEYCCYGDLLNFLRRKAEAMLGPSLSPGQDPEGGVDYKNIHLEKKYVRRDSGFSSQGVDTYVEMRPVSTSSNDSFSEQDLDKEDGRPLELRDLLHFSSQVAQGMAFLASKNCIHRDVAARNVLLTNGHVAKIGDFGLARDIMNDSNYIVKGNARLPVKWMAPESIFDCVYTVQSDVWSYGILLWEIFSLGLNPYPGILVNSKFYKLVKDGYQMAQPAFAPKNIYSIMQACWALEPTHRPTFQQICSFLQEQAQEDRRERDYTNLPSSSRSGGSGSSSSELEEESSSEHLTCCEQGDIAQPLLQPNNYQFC
T3 sequence (P07948 whole entry): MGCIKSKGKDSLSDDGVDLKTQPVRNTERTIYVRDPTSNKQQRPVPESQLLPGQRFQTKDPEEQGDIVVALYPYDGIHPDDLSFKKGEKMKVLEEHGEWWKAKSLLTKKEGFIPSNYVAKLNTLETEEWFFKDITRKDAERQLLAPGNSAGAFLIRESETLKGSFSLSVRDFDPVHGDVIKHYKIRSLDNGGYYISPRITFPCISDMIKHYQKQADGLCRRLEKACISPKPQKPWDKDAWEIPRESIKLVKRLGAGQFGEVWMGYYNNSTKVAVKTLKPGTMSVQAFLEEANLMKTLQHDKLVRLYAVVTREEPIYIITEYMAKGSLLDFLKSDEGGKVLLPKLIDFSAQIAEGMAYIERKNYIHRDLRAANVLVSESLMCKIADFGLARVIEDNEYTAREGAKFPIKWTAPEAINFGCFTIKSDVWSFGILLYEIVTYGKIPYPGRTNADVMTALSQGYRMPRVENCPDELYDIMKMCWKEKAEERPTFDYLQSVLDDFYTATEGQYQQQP

As usually defined, the inhibition is the drop in the measured response relative to a control, in per cent. As for `[2H]c1cc(C)c(NC(=O)c2cnc(Nc3cc(N4CCC(O)CC4)nc(C)n3)s2)c(Cl)c1` [Compound II, N-(2-chloro-4-deuterio-6-methyl-phenyl)-2-[[6-(4-hydroxy-1-piperidyl)-2-methyl-pyrimidin-4-yl]amino]thiazole-5-carboxamide], the inhibition at 0.001 µM is > 50% on FMS; < 50% on PDGFRβ; > 50% on LYNa; > 50% on EPHA1; < 50% on PIK3CA/PIK3R1 (at 1 nM); > 50% at BMX. For the same compound, the inhibition at 0.001 µM on FRK and on ABL was > 50% in each case. Further, the inhibition at 0.01 µM at FMS, at PDGFRβ, at LYNa, on EPHA1, on PIK3CA/PIK3R1 and on BMX was > 50% throughout. Also, the inhibition at 0.01 µM at DDR2, on FRK and at ABL was > 50% throughout. Also, the inhibition at 0.1 µM at PDGFRβ (at 100 nM) was > 50%; on PIK3CA/PIK3R1 (at 100 nM) it was < 50%.
On to `[2H]c1cc(C)c(NC(=O)c2cnc(Nc3cc(N4CCCCC4)nc(C)n3)s2)c(Cl)c1` [Compound I, N-(2-chloro-4-deuterio-6-methyl-phenyl)-2-[[2-methyl-6-(1-piperidyl)pyrimidin-4-yl]amino]thiazole-5-carboxamide], for which the inhibition at 0.001 µM at FMS, on PDGFRβ, on LYNa, at EPHA1, at BMX and at DDR2 (at 1 nM) was > 50% each time. Also, the inhibition at 0.001 µM at FRK and on ABL was > 50% in each case. Also, the inhibition at 0.01 µM on FMS, on PDGFRβ, on LYNa, at EPHA1, on PIK3CA/PIK3R1 and on BMX was > 50% throughout. In addition, the inhibition at 0.01 µM at DDR2, on FRK and at ABL was > 50% each time.
